In ChEMBL document CHEMBL1130855, “Carbohydrate modifications in the spirostane cellobioside cholesterol absorption inhibitor series” (1998):

Assays:
Cricetinae gen. sp. [1] = test: Inhibitory activity against cholesterol absorption in the hamster.; type: functional
Cricetinae gen. sp. [2] = test: Inhibition of cholesterol absorption in the hamster.; type: functional

SMILES | Relative potency (Cricetinae gen. sp. [1]) | ED50 (Cricetinae gen. sp. [2]) [mg/kg]
C[C@@H]1CC[C@@]2(OC1)O[C@H]1C[C@H]3[C@@H]4CC[C@H]5C[C@@H](O[C@@H]6O[C@@H](CO)[C@@H](O[C@@H]7O[C@@H](COC(=O)Nc8ccccc8F)[C@@H](O)[C@H](O)[C@@H]7O)[C@H](O)[C@@H]6O)CC[C@]5(C)[C@H]4CC(=O)[C@]3(C)[C@H]1[C@@H]2C | 10 | 0.3
C[C@@H]1CC[C@@]2(OC1)O[C@H]1C[C@H]3[C@@H]4CC[C@H]5C[C@@H](O[C@@H]6O[C@@H](COC(=O)Nc7ccccc7F)C(O[C@@H]7O[C@@H](CO)C(O)[C@H](O)C7O)[C@H](O)C6O)CC[C@]5(C)[C@H]4C(=O)C[C@]3(C)[C@H]1[C@@H]2C (stereo partly specified) | 280 | 7
C[C@@H]1CC[C@@]2(OC1)O[C@H]1C[C@H]3[C@@H]4CC[C@H]5C[C@@H](O[C@@H]6O[C@@H](CO)[C@@H](O[C@@H]7O[C@@H](CO)C[C@H](O)[C@@H]7O)[C@H](O)[C@@H]6O)CC[C@]5(C)[C@H]4CC(=O)[C@]3(C)[C@H]1[C@@H]2C | 433 | 13
C[C@@H]1CC[C@@]2(OC1)O[C@H]1C[C@H]3[C@@H]4CC[C@H]5C[C@@H](O[C@@H]6O[C@@H](CO)[C@@H](O[C@@H]7O[C@@H](COC(=O)Nc8ccccc8F)[C@@H](OC(=O)Nc8ccccc8F)[C@H](O)C7O)[C@H](O)[C@@H]6O)CC[C@]5(C)[C@H]4C(=O)C[C@]3(C)[C@H]1[C@@H]2C (stereo partly specified) | 1 | 0.025
C[C@@H]1CC[C@@]2(OC1)O[C@H]1C[C@H]3[C@@H]4CC[C@H]5C[C@@H](O[C@@H]6O[C@@H](CO)[C@@H](O[C@@H]7O[C@@H](COC(=O)Nc8ccccc8F)C[C@H](O)[C@@H]7O)[C@H](O)[C@@H]6O)CC[C@]5(C)[C@H]4CC(=O)[C@]3(C)[C@H]1[C@@H]2C | 5 | 0.15
C[C@@H]1CC[C@@]2(OC1)O[C@H]1C[C@H]3[C@@H]4CC[C@H]5C[C@@H](O[C@@H]6O[C@@H](CO)[C@@H](O[C@@H]7O[C@@H](COC(=O)Nc8ccccc8F)[C@@H](OC(=O)Nc8ccccc8F)[C@H](O)C7O)[C@H](O)[C@@H]6O)CC[C@]5(C)[C@H]4CC(=O)[C@]3(C)[C@H]1[C@@H]2C (stereo partly specified) | 2.3 | 0.07
C[C@@H]1CC[C@@]2(OC1)O[C@H]1C[C@H]3[C@@H]4CC[C@H]5C[C@@H](O[C@@H]6O[C@@H](CO)[C@@H](O[C@@H]7O[C@@H](CO)[C@@H](OC(=O)Nc8ccccc8F)[C@H](OC(=O)Nc8ccccc8F)[C@@H]7O)[C@H](O)[C@@H]6O)CC[C@]5(C)[C@H]4C(=O)C[C@]3(C)[C@H]1[C@@H]2C | 4 | 0.1
C[C@@H]1CC[C@@]2(OC1)O[C@H]1C[C@H]3[C@@H]4CC[C@H]5C[C@@H](O[C@@H]6O[C@@H](C)[C@@H](O[C@@H]7O[C@@H](C)[C@@H](O)[C@H](O)[C@@H]7O)[C@H](O)[C@@H]6O)CC[C@]5(C)[C@H]4CC(=O)[C@]3(C)[C@H]1[C@@H]2C | 167 | 5
C[C@@H]1CC[C@@]2(OC1)O[C@H]1C[C@H]3[C@@H]4CC[C@H]5C[C@@H](O[C@@H]6O[C@@H](CO)[C@@H](O[C@@H]7O[C@@H](CO)[C@@H](OC(=O)Nc8ccccc8F)[C@H](O)[C@@H]7O)[C@H](O)[C@@H]6O)CC[C@]5(C)[C@H]4CC(=O)[C@]3(C)[C@H]1[C@@H]2C | 5 | 0.15
C[C@@H]1CC[C@@]2(OC1)O[C@H]1C[C@H]3[C@@H]4CC[C@H]5C[C@@H](O[C@@H]6O[C@@H](COC(=O)Nc7ccccc7F)[C@@H](O[C@@H]7O[C@@H](COC(=O)Nc8ccccc8F)[C@@H](O)[C@H](O)[C@@H]7O)[C@H](O)[C@@H]6O)CC[C@]5(C)[C@H]4C(=O)C[C@]3(C)[C@H]1[C@@H]2C | 32 | 0.8
C[C@@H]1CC[C@@]2(OC1)O[C@H]1C[C@H]3[C@@H]4CC[C@H]5C[C@@H](O[C@@H]6O[C@@H](CO)[C@@H](O[C@@H]7O[C@@H](C)C[C@H](O)[C@@H]7O)[C@H](O)[C@@H]6O)CC[C@]5(C)[C@H]4CC(=O)[C@]3(C)[C@H]1[C@@H]2C | 100 | 3
C[C@@H]1CC[C@@]2(OC1)O[C@H]1C[C@H]3[C@@H]4CC[C@H]5C[C@@H](O[C@@H]6O[C@@H](CO)[C@@H](O[C@@H]7O[C@@H](C)[C@@H](OC(=O)Nc8ccccc8F)[C@H](O)[C@@H]7O)[C@H](O)[C@@H]6O)CC[C@]5(C)[C@H]4CC(=O)[C@]3(C)[C@H]1[C@@H]2C | 1 | 0.03
C[C@@H]1CC[C@@]2(OC1)O[C@H]1C[C@H]3[C@@H]4CC[C@H]5C[C@@H](O[C@@H]6O[C@@H](CO)[C@@H](O[C@@H]7O[C@@H](CO)[C@@H](OC(=O)Nc8ccccc8F)[C@H](O)[C@@H]7O)[C@H](O)[C@@H]6O)CC[C@]5(C)[C@H]4C(=O)C[C@]3(C)[C@H]1[C@@H]2C | 4 | 0.1
C[C@@H]1CC[C@@]2(OC1)O[C@H]1C[C@H]3[C@@H]4CC[C@H]5C[C@@H](O[C@@H]6O[C@@H](COC(=O)Nc7ccccc7F)[C@@H](O[C@@H]7O[C@@H](COC(=O)Nc8ccccc8F)[C@@H](OC(=O)Nc8ccccc8F)[C@H](O)[C@@H]7O)[C@H](O)[C@@H]6O)CC[C@]5(C)[C@H]4C(=O)C[C@]3(C)[C@H]1[C@@H]2C | 8 | 0.2
C[C@@H]1CC[C@@]2(OC1)O[C@H]1C[C@H]3[C@@H]4CC[C@H]5C[C@@H](O[C@@H]6O[C@@H](CO)[C@@H](O[C@@H]7O[C@@H](COC(=O)Nc8ccccc8F)[C@@H](O)[C@H](O)[C@@H]7O)[C@H](O)[C@@H]6O)CC[C@]5(C)[C@H]4C(=O)C[C@]3(C)[C@H]1[C@@H]2C | 8 | 0.2
C[C@@H]1CC[C@@]2(OC1)O[C@H]1C[C@H]3[C@@H]4CC[C@H]5C[C@@H](O[C@@H]6O[C@@H](CO)[C@@H](O[C@@H]7O[C@@H](C)[C@@H](O)[C@H](O)[C@@H]7O)[C@H](O)[C@@H]6O)CC[C@]5(C)[C@H]4CC(=O)[C@]3(C)[C@H]1[C@@H]2C | 107 | 3.2
C[C@@H]1CC[C@@]2(OC1)OC1C[C@H]3[C@@H]4CC[C@H]5C[C@@H](O[C@@H]6O[C@@H](C)[C@@H](O[C@@H]7O[C@@H](CO)[C@@H](O)[C@H](O)[C@@H]7O)[C@H](O)[C@@H]6O)CC[C@]5(C)[C@H]4CC(=O)[C@]3(C)C1[C@@H]2C (stereo partly specified) | 167 | 5
C[C@@H]1CC[C@@]2(OC1)O[C@H]1C[C@H]3[C@@H]4CC[C@H]5C[C@@H](O[C@@H]6O[C@@H](CO)[C@@H](O[C@@H]7O[C@@H](CO)[C@@H](O)[C@H](O)[C@@H]7O)[C@H](O)[C@@H]6O)CC[C@]5(C)[C@H]4CC(=O)[C@]3(C)[C@H]1[C@@H]2C [CELLOBIOSYL HECOGENIN] | 333 | 10
